From patent US5786385A, “Polyacetylenes” (priority 1993, dated 1998) come the findings set out here.

Data set [1] can be described thus: Solubility / lipophilicity. Type of data set: physicochemical.
Data set [2] concerns pentobarbitone sodium induced sleep. As to the kind of experiment: Pentobarbitone sodium induced sleep in rats (sleeping time), analeptic action. Type of data set: in vivo, rat. Conditions: for ED50: after intraperitoneal 40 mg/kg pentobarbitone sodium, read-out: dose reducing "sleeping time" by 50%. The method, then:
The effects of cunaniol on pentobarbitone sodium induced sleep in rats were compared with those of the analeptic bemegride. 5 mg/kg of cunaniol administered by intraperitoneal injection antagonises pentobarbitone while 7.4 mg/kg reduces "sleeping time" by 50% after intraperitoneal administration of a concentration of 40 mg/kg pentobarbitone sodium.

Data set [3] can be described thus: Potency of cis-cunaniol relative to the trans form. Conditions: cis form versus trans form; only about 1/60th.
A short description of data set [4]: Craig Distribution studies (Kp value). Type of data set: physicochemical. Conditions: obtained previously from Craig Distribution studies. The procedure: Crude syrup (190 g.) from the cold petrol extraction was dissolved in upper phase solvent (150 mls.). A steady state distribution program was used, based on a Kp value for cunaniol acetate of 0.54 obtained previously from Craig Distribution studies. The mixture was then loaded into the SSDM dosage pump.

For data set [5] the following is noted: for stability to air and light: exposure to light and air / oxygen.
Data set [6] has as its system frog and rat isolated striated muscle preparations. Nature of the data set: Frog and rat isolated striated muscle preparations, nerve stimulation. From the text: Experiments have been carried out on frog and rat isolated striated muscle preparations.
The test system of data set [7] is cardiovascular system. Nature of the data set: Action on the cardiovascular system. Conditions: in vivo.
The test system of data set [8] is frogs. As to the kind of experiment: Administration to frogs by injection or by topical application: convulsions and death. Type of data set: in vivo, frog. From the text: (§1) Cunaniol is about ten times as active and ten times as rapid as the classic central nervous system stimulant picrotoxin. Convulsant action can be antagonised by prior exposure to anticonvulsants such as phenobarbitone or troxidone.

Data set [9] in a line: Convulsant action and lethality in rats, intraperitoneal injection. In kind it is in vivo, rat. Conditions: rat, in vivo, ip, read-out: non-convulsant dose. The procedure:
(§2) Rats are also sensitive to the convulsant actions of cunaniol, a convulsant dose being 5 mg/kg. A dosage of 2.24 mg/kg is a non-convulsant dose while 10 mg/kg causes death (intraperitoneal injection).

Data set [10] concerns Rats. The description is as above. In kind it is in vivo, rat. The procedure: as §2
The test system of data set [11] is GABAergic system. As to the kind of experiment: GABA (gamma-amino-butyric acid) antagonism.
The test system of data set [12] is frog spinal cord preparation. As to the kind of experiment: Frog spinal cord preparation.
Source text: as §1

In data set [13] the test system is mice. As to the kind of experiment: Convulsant action in mice, intraperitoneal or oral. In kind it is in vivo, mouse. Conditions: for convulsant type in mice: intraperitoneally or orally; for similarity of convulsant actions to cunaniol: mice.
The test system of data set [14] is intact anaesthetised rats. Nature of the data set: Pressor response in intact anaesthetised rats. In kind it is in vivo, rat. Conditions: intravenous injection. The procedure: (§3) In intact anaesthetised rats, a sustained pressor response is produced by cunaniol administered by intravenous injection in doses of 0.5 mg or greater. In pithed rats the response to cunaniol was abolished, indicating a central action of the polyacetylene.

Data set [15] relates to rat heart. As to the kind of experiment: Rat heart contractability and heart block.
Data set [16] relates to guppies. Nature of the data set: Toxicity test on guppies. Type of data set: in vivo, guppy. From the text: Cunaniol or its derivatives may also be used as an effective toxin. When tested on guppies at approximately 10^-6 M the poison gives rise to restless movement after two minutes, wild swimming, convulsion and coma with the body bent laterally after ten minutes.
Data set [17] relates to isolated rabbit heart. As to the kind of experiment: Isolated rabbit heart perfusion.
The test system of data set [18] is central nervous system. As to the kind of experiment: Central nervous system stimulant / convulsant activity compared with picrotoxin; antagonism by anticonvulsants. Type of data set: in vivo. Conditions: for antagonism of cunaniol convulsant action: prior exposure to anticonvulsant.
Source text: as §1

The test system of data set [19] is viviparous fish. As to the kind of experiment: Release of fry from viviparous fish. In kind it is in vivo. Conditions: due to effects on neuromuscular function.
Data set [20] has as its system pithed rats. As to the kind of experiment: Pressor response in pithed rats. Conditions: indicating a central action. In kind it is in vivo, rat. The method, then: as §3
The subject of data set [21] is isolated rat phrenic nerve-diaphragm preparation. As to the kind of experiment: Isolated rat phrenic nerve-diaphragm preparation. The text has this: This is not reversed by neostigmine, i.e. is not curare-like.

Read-outs that look alike come from different tables or passages of the source. Where only a bound is given, the exact number is not on record here.

Regarding `CC#CC#CC#C/C=C/C1OCCCC1O` (stereo not shown), the solubility in water entry in data set [1] (water) is on record as “low solubility in water”.

As for `CCC1(C)CC(=O)NC(=O)C1` [bemegride, reference compound], in data set [2] (Rattus norvegicus, ip, rats), the ED50 was 45.7 mg/kg.

On to `CC#CC#CC#C/C=C\C1OCCCC1O` (stereo not drawn) [cis-cunaniol], for which the “potency relative to trans form” value in [3] was “about 1/60”.

In the case of `CC#CC#CC#CC=CC1OCCCC1OC(C)=O` (stereo not shown) [cunaniol acetate], the Kp value in data set [4] came to 0.54. Besides, in [5] (with sodium bicarbonate), the hydrolysis entry was “easily hydrolysed”.

One may read the LD50 as the dose at which mortality reaches 50%. On to `CC#CC#CC#CC=CC1OCCCC1O` (stereo not shown) [cunaniol], for which, in data set [6], the “response to nerve stimulation” value is on record as “increased response to nerve stimulation”. For the same compound, the “neuromuscular transmission at higher concentrations” value in data set [6] (higher concentrations) is “failure in neuromuscular transmission”. The “effect on the cardiovascular system” value in data set [7] was “transient depressant effect on the heart and a sustained pressor response”. Further, the effect in frogs entry in [8] (by injection or by topical application) is “clonic convulsions and death”. Moreover, in [8] (frogs, intraperitoneal injection), the median lethal dose (LD50) turned out to be 12.8 mg/kg. For the same compound, the NOAEL in [9] came to 2.24 mg/kg. For the same compound, in data set [10], the convulsant dose was 5 mg/kg and the dose causing death came to 10 mg/kg. Besides, the GABA antagonist activity result in [11] is listed as “GABA (gamma-amino-butyric acid) antagonist”. In addition, the “effects on frog spinal cord preparation” value in [12] is on record as “resemble those of nicotine”. The “potency among the clonic convulsants” value in [13] (both routes of administration, compared with leptazol, picrotoxin) was “most potent of the clonic convulsants”. Moreover, the “speed of onset of effects” value in [13] (compared with the other compounds) is on record as “usually occurred more rapidly than with the other compounds”. In addition, in [13], the “convulsant type in mice” value is “clonic convulsant”. The “dose producing a sustained pressor response” value in data set [14] is ≥ 0.5 mg. Also, in data set [15] (larger doses), the “effect on rat heart, larger doses” value was “complete heart block”. Further, the “reversibility of heart block” value in data set [15] (on washing out, no apparent impairment of function) is recorded as “rapidly reversed on washing out”. In addition, in [15] (small doses), the “effect on rat heart, small doses” value was “reduce contractability of the rat heart”. For the same compound, the “edibility of treated fish” value in data set [16] (almost immediately after treatment) was “edible almost immediately”. Further, the “subsequent symptoms after recovery” value in data set [16] (guppies removed into fresh water) was “no subsequent symptoms”. The “time to complete recovery” value in [16] (guppies removed into fresh water after ten minutes at approximately 10^-6 M) is on record as “approximately twenty”. Besides, in [16] (guppies, approximately 10^-6 M), the “time to restless movement” value is on record as “two”; the “time to wild swimming, convulsion and coma with the body bent laterally” value is given as “ten”. For the same compound, the lipophilicity result in data set [1] (due to the polyacetylene chain) is “lipophilic”. The minimal effective dose in [2] (Rattus norvegicus, ip, rats, intraperitoneal injection, read-out: dose antagonising pentobarbitone) worked out at 5 mg/kg. Also, in data set [2] (Rattus norvegicus, ip, rats), the ED50 was found to be 7.4 mg/kg. Moreover, the selectivity as analeptic entry in data set [2] (compared with bemegride and leptazol) is given as “more selective anti-phenobarbitone action”. Besides, the “analeptic potency compared with bemegride” value in [2] (rats, 50% reduction of "sleeping time") is “more potent than bemegride”. In [17] (perfusion, 100 μg/ml, preliminary experiments), the “effect on isolated rabbit heart” value is listed as “negative inotropic effect culminating in complete but reversible cardiac arrest in diastole”. In addition, the “rapidity relative to picrotoxin” value in data set [18] (ten times as rapid as picrotoxin) was “about ten”. Further, the “release of fry from viviparous fish” value in data set [19] is reported as “highly effective”. In data set [5], the “stability to air and light” value is “readily decomposed to a brown material”. For the same compound, in data set [5] (listed as trans-cunaniol), the “stability to air and light” value was “unstable to oxygen and light”. For the same compound, in data set [5] (solid under n-hexane, in the dark, in a refrigerator), the storage stability entry is “could be kept for years”. In addition, in data set [20], the “pressor response in pithed rats” value was “abolished”. Also, the minimal effective concentration in data set [21] (Rattus norvegicus, direct action on the muscle, dose dependent, concentrations as low as, read-out: lowest concentration giving marked potentiation) came to 12.5 µg/mL. The “concentration giving complete neuromuscular block” value in [21] (higher concentrations) is 100 µg/mL. In addition, the “reversal of block by washing” value in [21] (washing) is “readily reversed by washing”. Further, the “time for removal of potentiation by washing” value in [21] (washing, more slowly removed than block) was determined as 60 min.

As for `CC#CC#CC#C/C=C/C1OCCCC1OC1C=C[C@H](OC(C)=O)[C@@H](COC(C)=O)O1` (stereo partly shown) [glycoside], in [5] (hydrolysis of the glycoside link), the “liberation of cunaniol on hydrolysis” value is “readily liberated on hydrolysis”.

Take `C1CCc2nnnn2CC1` [leptazol]: in data set [13], the “similarity of convulsant actions to cunaniol” value (from here on “similarity”) is “mimicked closely”.

`CN(C)C(=O)Oc1cccc([N+](C)(C)C)c1` [neostigmine, reference compound]: the “reversal of neuromuscular block by neostigmine” value in [21] (block by cunaniol, i.e. not curare-like) is on record as “not reversed”.

With `CCC1(c2ccccc2)C(=O)NC(=O)NC1=O` [phenobarbitone, reference compound], the “antagonism of responses of guppies to cunaniol” value in data set [16] (in vivo) was “readily antagonises all responses”. The “antagonism of cunaniol convulsant action” value in data set [18] was “antagonised”.

With `C=C(C)[C@H]1Cc2c(ccc3c2O[C@@H]2COc4cc(OC)c(OC)cc4[C@@H]2C3=O)O1` [rotenone], the toxicity to mice entry in data set [13] (metabolic toxin, comparison) is listed as “highly toxic to mice”. Also, the “similarity” value in [13] is “qualitatively different from the convulsants”. For the same compound, the “reversibility in isolated rabbit heart” value in data set [17] (similar experiment with rotenone) is “did not exhibit the reversibility”.

Regarding `O=C1C[C@@H]2OCC=C3CN4CC[C@]56c7ccccc7N1[C@H]5[C@H]2[C@H]3C[C@H]46` [strychnine], in [13], the “convulsant type in mice” value was “tonic convulsions” and the “similarity” value was “differed”.

With `CN1C(=O)OC(C)(C)C1=O` [troxidone, reference compound], the “antagonism of cunaniol convulsant action” value in data set [18] is on record as “antagonised”.

As to picrotoxin, the “similarity” value in data set [13] is listed as “less closely”.
